Results reported in patent publication US20150119360A1, “COMPOSITION FOR PROMOTING BIFIDOBACTERIA GROWTH” (Kyoto University, priority 2012, published 2015).

Key:
Assay in all cases: Growth-promoting (prebiotic) effect, OD600 after 24 hr anaerobic culture in GAM bouillon
Format in all cases: cell-based
[1] = test system: Bifidobacterium longum subsp. Longum 1217 strain; conditions: B. longum subsp. Longum 1217, 0.5 (w/v) % oligosaccharide, 37° C.
Description: (§1) The microorganisms were purchased from independent administrative agency RIKEN Tsukuba Laboratory BioResource Center (3-1-1 Koyadai, Tsukuba, Ibaraki 305-0074, Japan). As Bifidobacterium longum subsp. longum NCC2705, the strain preserved under GenBank accession number NC004307 was used.
(§2) Glycerol stock of each strain shown in Table 1 was plated in GAM bouillon (manufactured by Nissui Pharmaceutical Co., Ltd.) agar medium, and cultured using a gas pack (“Anaeropack”, manufactured by Mitsubishi Gas Chemical Company, Inc.), under anaerobic conditions at 37° C. for 2 days to renature the test strain. Each strain was inoculated in 5 mL GAM bouillon liquid medium, and precultured in the same manner as above under an anaerobic condition at 37° C. for 18 hr.
(§3) The turbidity (OD600) of each culture medium was measured at wavelength 600 nm on completion of the preculture. The preculture medium was seeded in 1 mL of main test liquid medium such that the OD600 value at the time of start of the culture was 0.010, the cells were cultured under anaerobic conditions at 37° C. for 24 hr in the same manner as above, and OD600 of the culture medium was measured on completion of the culture. The liquid medium for the test was prepared by adding LNT or LNnT to the GAM bouillon liquid medium at a final concentration of 0.5 (w/v) %. In addition, GAM bouillon liquid medium free of both oligosaccharides LNT, LNnT was used as a control. To evaluate the growth-promoting effect (prebiotic effect) of LNT and LNnT, the relative value of the oligosaccharide (LNT or LNnT) addition plot, when the measurement value OD600 of the oligosaccharide non-addition plot (control) was 1, is shown in FIG. 2.

[2] = test system: Bifidobacterium longum subsp. Longum 7054 strain; conditions: B. longum subsp. Longum 7054, 0.5 (w/v) % oligosaccharide, 37° C.
Description: as §1, §2, §3

[3] = test system: Bifidobacterium longum subsp. Longum NCC2705 strain; conditions: B. longum subsp. Longum NCC2705, 0.5 (w/v) % oligosaccharide, 37° C.
Description: as §1, §2, §3

Measured: prebiotic effect (OD600 of oligosaccharide addition test plot/OD600 of control plot)

4-O-[3-[2-(acetylamino)-2-deoxy-3-O-(β-D-galactopyranosyl)-β-D-glucopyranosyl]-β-D-galactopyranosyl]-D-glucose [LNT]
≥ 2 fold: all assays above
